Test results reported in the kinase profiling compilation of Christmann-Franck et al. (2016).

Key:
Assay in all cases: Caliper, Mobility shift assay off-chip
PRKCI (human) = PRKCI (human) (UniProt P41743)
PIM3 (human) = PIM3 (human) (UniProt Q86V86)
ROCK1 (human) = ROCK1 (human) (UniProt Q13464)
EPHB1 (human) = EPHB1 (human) (UniProt P54762)
TYRO3 (human) = TYRO3 (human) (UniProt Q06418)
DYRK3 (human) = DYRK3 (human) (UniProt O43781)
PASK (human) = PASK (human) (UniProt Q96RG2)
RPS6KA6 KD1 KD2 (human) = RPS6KA6 KD1 KD2 (human) (UniProt Q9UK32)
[1] = tested on: EGFR (human), P00533 [T790M]
MERTK (human) = MERTK (human) (UniProt Q12866)
[2] = tested on: FGFR3 (human), P22607 [K650E]
DAPK3 (human) = DAPK3 (human) (UniProt O43293)
CDK5 CDK5R1 p25 (human) = CDK5 CDK5R1 p25 (human) (UniProt Q15078+Q00535)
KIT (human) = KIT (human) (UniProt P10721)
MELK (human) = MELK (human) (UniProt Q14680)
ITK (human) = ITK (human) (UniProt Q08881)
DCLK1 (human) = DCLK1 (human) (UniProt O15075)
ROS1 (human) = ROS1 (human) (UniProt P08922)
AXL (human) = AXL (human) (UniProt P30530)
CSNK1G2 (human) = CSNK1G2 (human) (UniProt P78368)
[3] = tested on: PDGFRA (human), P16234 [V561D]
EPHA8 (human) = EPHA8 (human) (UniProt P29322)
YES1 (human) = YES1 (human) (UniProt P07947)
[4] = tested on: EGFR (human), P00533 [T790M/L858R]
HIPK1 (human) = HIPK1 (human) (UniProt Q86Z02)
BLK (human) = BLK (human) (UniProt P51451)
DAPK1 (human) = DAPK1 (human) (UniProt P53355)
MARK4 (human) = MARK4 (human) (UniProt Q96L34)
CSNK1G3 (human) = CSNK1G3 (human) (UniProt Q9Y6M4)
CAMK2A (human) = CAMK2A (human) (UniProt Q9UQM7)
HIPK2 (human) = HIPK2 (human) (UniProt Q9H2X6)
PTK2B (human) = PTK2B (human) (UniProt Q14289)
DYRK4 (human) = DYRK4 (human) (UniProt Q9NR20)

PTK2B (human), sequence (Q14289 whole entry, looked up): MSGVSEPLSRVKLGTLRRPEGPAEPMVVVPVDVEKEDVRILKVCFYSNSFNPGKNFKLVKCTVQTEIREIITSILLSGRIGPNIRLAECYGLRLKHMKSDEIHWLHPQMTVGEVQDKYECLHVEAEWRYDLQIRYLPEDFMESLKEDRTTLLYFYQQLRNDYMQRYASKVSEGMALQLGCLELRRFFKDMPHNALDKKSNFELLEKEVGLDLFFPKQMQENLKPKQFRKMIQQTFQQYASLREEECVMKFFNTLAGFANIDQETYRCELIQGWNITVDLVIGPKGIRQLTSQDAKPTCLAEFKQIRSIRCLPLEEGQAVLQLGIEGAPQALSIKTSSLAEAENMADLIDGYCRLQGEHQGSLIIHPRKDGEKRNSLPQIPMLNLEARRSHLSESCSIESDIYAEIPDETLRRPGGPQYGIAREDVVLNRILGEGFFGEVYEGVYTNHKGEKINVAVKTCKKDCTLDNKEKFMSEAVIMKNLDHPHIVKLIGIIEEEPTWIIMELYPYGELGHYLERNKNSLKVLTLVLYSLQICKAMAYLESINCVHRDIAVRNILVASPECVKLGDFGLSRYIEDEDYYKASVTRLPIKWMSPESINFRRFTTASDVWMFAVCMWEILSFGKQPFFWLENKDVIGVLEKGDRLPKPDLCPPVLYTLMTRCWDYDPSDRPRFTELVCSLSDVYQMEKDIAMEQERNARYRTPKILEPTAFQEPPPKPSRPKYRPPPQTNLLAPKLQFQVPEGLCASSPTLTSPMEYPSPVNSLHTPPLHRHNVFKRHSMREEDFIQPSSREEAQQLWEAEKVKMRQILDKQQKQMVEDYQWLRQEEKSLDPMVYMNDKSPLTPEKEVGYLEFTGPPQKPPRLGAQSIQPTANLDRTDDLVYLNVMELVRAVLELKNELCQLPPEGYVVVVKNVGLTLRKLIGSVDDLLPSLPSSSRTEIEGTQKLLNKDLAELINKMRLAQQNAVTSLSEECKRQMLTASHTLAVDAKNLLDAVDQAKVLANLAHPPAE
EGFR (human), P00533 [T790M], sequence (P00533 whole entry T790M, looked up): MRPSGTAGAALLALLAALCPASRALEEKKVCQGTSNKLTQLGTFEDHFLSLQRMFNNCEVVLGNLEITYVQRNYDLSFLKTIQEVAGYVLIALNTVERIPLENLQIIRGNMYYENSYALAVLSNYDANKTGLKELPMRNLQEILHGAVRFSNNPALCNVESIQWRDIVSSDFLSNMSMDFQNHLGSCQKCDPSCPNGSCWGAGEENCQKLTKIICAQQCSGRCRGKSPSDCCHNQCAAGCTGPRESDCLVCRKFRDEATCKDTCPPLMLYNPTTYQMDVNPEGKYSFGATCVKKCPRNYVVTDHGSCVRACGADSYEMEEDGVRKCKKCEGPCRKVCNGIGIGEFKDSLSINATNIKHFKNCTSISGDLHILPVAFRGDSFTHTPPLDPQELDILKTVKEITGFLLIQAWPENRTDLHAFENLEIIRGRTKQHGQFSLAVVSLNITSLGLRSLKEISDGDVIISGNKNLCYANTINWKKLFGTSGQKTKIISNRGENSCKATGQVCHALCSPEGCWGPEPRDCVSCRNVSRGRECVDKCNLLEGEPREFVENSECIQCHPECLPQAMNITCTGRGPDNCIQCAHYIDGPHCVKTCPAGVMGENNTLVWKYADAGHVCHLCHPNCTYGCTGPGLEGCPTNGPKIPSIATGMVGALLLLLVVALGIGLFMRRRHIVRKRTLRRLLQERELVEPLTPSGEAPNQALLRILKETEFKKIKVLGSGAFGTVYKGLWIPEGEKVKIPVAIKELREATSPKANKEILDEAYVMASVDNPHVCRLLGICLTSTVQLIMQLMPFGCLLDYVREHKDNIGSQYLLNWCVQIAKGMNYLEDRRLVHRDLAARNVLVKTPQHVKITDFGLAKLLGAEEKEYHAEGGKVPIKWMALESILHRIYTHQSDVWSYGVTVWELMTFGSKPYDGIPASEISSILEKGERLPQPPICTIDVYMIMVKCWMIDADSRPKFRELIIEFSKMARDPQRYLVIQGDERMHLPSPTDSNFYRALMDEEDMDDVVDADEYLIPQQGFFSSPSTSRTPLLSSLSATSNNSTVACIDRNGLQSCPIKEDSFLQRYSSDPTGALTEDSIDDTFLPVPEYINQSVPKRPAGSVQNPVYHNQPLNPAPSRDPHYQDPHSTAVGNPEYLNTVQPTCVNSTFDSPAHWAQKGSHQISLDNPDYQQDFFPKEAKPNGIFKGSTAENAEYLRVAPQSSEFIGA
TYRO3 (human), sequence (Q06418 whole entry, looked up): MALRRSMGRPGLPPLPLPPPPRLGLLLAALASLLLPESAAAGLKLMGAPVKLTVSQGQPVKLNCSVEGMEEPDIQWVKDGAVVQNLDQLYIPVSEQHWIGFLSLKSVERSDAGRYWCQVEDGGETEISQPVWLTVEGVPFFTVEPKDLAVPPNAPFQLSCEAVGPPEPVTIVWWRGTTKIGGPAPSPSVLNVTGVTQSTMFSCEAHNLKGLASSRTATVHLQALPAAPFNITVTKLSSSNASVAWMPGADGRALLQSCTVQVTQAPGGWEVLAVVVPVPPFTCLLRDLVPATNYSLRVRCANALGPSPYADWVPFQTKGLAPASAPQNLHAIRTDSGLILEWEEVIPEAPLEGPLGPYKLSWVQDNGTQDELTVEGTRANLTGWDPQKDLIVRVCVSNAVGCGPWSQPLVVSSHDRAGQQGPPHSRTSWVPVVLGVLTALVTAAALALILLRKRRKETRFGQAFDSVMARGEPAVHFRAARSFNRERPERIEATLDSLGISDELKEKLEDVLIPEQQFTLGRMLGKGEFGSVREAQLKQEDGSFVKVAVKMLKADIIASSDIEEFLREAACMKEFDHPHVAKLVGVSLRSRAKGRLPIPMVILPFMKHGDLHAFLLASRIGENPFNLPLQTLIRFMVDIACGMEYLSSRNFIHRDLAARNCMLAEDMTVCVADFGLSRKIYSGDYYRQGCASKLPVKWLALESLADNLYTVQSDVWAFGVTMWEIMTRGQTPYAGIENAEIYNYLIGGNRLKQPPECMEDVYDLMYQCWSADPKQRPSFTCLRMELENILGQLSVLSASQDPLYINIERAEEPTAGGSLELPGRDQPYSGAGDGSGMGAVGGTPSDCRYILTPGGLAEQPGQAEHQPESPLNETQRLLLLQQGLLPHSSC
MARK4 (human), sequence (Q96L34 whole entry, looked up): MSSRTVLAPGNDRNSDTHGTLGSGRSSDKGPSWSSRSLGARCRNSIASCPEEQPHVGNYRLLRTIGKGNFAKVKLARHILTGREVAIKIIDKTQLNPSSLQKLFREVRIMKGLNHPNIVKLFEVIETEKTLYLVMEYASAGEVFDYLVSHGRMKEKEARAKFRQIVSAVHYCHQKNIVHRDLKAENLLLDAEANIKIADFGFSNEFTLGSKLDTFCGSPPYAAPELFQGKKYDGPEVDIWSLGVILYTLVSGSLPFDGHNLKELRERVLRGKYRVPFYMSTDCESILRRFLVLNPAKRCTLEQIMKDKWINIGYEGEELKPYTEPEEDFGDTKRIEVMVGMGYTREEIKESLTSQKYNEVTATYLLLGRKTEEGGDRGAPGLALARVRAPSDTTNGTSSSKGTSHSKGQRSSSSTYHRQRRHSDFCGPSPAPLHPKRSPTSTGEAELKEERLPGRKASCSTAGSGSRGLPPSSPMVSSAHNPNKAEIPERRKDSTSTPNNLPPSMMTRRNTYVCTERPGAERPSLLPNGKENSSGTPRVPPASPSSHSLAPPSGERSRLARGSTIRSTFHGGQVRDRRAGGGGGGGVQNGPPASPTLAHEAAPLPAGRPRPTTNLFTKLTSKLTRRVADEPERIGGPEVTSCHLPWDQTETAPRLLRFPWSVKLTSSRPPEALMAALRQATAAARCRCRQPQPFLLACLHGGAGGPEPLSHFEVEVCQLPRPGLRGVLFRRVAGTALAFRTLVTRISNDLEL
DAPK3 (human), sequence (O43293 whole entry, looked up): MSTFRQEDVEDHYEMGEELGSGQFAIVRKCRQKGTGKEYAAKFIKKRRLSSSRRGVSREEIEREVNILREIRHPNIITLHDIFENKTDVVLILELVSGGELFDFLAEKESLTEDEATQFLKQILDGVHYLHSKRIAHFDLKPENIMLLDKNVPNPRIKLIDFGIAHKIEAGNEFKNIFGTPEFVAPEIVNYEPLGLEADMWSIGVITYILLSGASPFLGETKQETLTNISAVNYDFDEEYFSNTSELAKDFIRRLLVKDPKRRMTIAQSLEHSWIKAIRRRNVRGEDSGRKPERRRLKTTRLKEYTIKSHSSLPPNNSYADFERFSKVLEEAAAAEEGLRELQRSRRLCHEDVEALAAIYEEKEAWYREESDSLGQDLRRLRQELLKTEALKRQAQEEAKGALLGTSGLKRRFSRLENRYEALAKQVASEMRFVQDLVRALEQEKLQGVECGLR
CAMK2A (human), sequence (Q9UQM7 whole entry, looked up): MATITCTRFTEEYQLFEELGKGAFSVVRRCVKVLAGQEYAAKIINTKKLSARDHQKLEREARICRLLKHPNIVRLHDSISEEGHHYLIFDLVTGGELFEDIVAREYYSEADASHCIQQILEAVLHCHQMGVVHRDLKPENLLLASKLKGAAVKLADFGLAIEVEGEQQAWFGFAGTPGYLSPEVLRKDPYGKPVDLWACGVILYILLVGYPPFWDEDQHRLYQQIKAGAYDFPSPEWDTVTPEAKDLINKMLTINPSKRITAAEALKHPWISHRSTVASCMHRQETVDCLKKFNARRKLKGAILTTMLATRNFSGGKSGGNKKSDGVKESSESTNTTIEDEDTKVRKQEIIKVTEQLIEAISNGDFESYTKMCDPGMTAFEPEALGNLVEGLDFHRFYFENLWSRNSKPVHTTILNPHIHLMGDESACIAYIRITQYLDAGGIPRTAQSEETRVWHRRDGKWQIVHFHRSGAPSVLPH

## Cn1cc(-c2cnc3ccc4ccc(CS(=O)(=O)NC5CCCCC5)cc4c(=O)c3c2)cn1
PRKCI (human); compound 0.01 µM
  inhibition: 0.9%
PRKCI (human); compound 0.1 µM
  inhibition: 1%
PIM3 (human); compound 0.01 µM
  inhibition: 7%
PIM3 (human); compound 0.1 µM
  inhibition: 4.6%
ROCK1 (human); compound 0.01 µM
  inhibition: 3.1%
ROCK1 (human); compound 0.1 µM
  inhibition: 4%
EPHB1 (human); compound 0.01 µM
  inhibition: 5.1%
EPHB1 (human); compound 0.1 µM
  inhibition: -8%
TYRO3 (human); compound 0.01 µM
  inhibition: -1.1%
TYRO3 (human); compound 0.1 µM
  inhibition: 9.2%
DYRK3 (human); compound 0.01 µM
  inhibition: 1.8%
DYRK3 (human); compound 0.1 µM
  inhibition: 19.6%
PASK (human); compound 0.01 µM
  inhibition: 1.5%
PASK (human); compound 0.1 µM
  inhibition: 18.4%
RPS6KA6 KD1 KD2 (human); compound 0.01 µM
  inhibition: 5.8%
RPS6KA6 KD1 KD2 (human); compound 0.1 µM
  inhibition: 3.2%
[1]; compound 0.01 µM
  inhibition: -4.4%
[1]; compound 0.1 µM
  inhibition: -7.2%
MERTK (human); compound 0.01 µM
  inhibition: 11%
MERTK (human); compound 0.1 µM
  inhibition: 9.5%
[2]; compound 0.01 µM
  inhibition: -2.1%
[2]; compound 0.1 µM
  inhibition: 5.1%
DAPK3 (human); compound 0.01 µM
  inhibition: -1.6%
DAPK3 (human); compound 0.1 µM
  inhibition: 0.3%
CDK5 CDK5R1 p25 (human); compound 0.01 µM
  inhibition: 8.4%
CDK5 CDK5R1 p25 (human); compound 0.1 µM
  inhibition: -2%
KIT (human); compound 0.01 µM
  inhibition: -3.5%
KIT (human); compound 0.1 µM
  inhibition: 13.6%
MELK (human); compound 0.01 µM
  inhibition: 1.7%
MELK (human); compound 0.1 µM
  inhibition: -0.5%
ITK (human); compound 0.01 µM
  inhibition: -2.6%
ITK (human); compound 0.1 µM
  inhibition: 15.3%
DCLK1 (human); compound 0.01 µM
  inhibition: 5.9%
DCLK1 (human); compound 0.1 µM
  inhibition: 12%
ROS1 (human); compound 0.01 µM
  inhibition: 21.2%
ROS1 (human); compound 0.1 µM
  inhibition: 6.6%
AXL (human); compound 0.01 µM
  inhibition: -2.8%
AXL (human); compound 0.1 µM
  inhibition: 11.7%
CSNK1G2 (human); compound 0.01 µM
  inhibition: 4.3%
CSNK1G2 (human); compound 0.1 µM
  inhibition: 1.3%
[3]; compound 0.01 µM
  inhibition: 4.1%
[3]; compound 0.1 µM
  inhibition: 19.6%
EPHA8 (human); compound 0.01 µM
  inhibition: 15.6%
EPHA8 (human); compound 0.1 µM
  inhibition: 0.3%
YES1 (human); compound 0.01 µM
  inhibition: -1.4%
YES1 (human); compound 0.1 µM
  inhibition: -1.7%
[4]; compound 0.01 µM
  inhibition: 1.8%
[4]; compound 0.1 µM
  inhibition: -0.4%
HIPK1 (human); compound 0.01 µM
  inhibition: 1.9%
HIPK1 (human); compound 0.1 µM
  inhibition: 4.6%
BLK (human); compound 0.01 µM
  inhibition: 0.8%
BLK (human); compound 0.1 µM
  inhibition: 15.8%
DAPK1 (human); compound 0.01 µM
  inhibition: 13.1%
DAPK1 (human); compound 0.1 µM
  inhibition: 0.1%
MARK4 (human); compound 0.01 µM
  inhibition: 7.1%
MARK4 (human); compound 0.1 µM
  inhibition: 2.2%
CSNK1G3 (human); compound 0.01 µM
  inhibition: 0.7%
CSNK1G3 (human); compound 0.1 µM
  inhibition: -0.7%
CAMK2A (human); compound 0.01 µM
  inhibition: -12.3%
CAMK2A (human); compound 0.1 µM
  inhibition: -3.8%
HIPK2 (human); compound 0.01 µM
  inhibition: -0.3%
HIPK2 (human); compound 0.1 µM
  inhibition: 7%
PTK2B (human); compound 0.01 µM
  inhibition: -1%
PTK2B (human); compound 0.1 µM
  inhibition: 6.8%
DYRK4 (human); compound 0.01 µM
  inhibition: 8.3%
DYRK4 (human); compound 0.1 µM
  inhibition: 12.1%
